Measured values published in patent US4225619A, “Substituted fluoracylresorcinols” (Boehringer Ingelheim GmBH, priority 1976, dated 1980).
≈ marks a conversion by molar mass, not a printed value.

How the values were obtained:
Type in all cases: cell-based
[1] = tested on: Staphylococcus aureus SG 511; test: Serial dilution test; conditions: Staphylococcus aureus, SG511, 18-20 hours at 37° C., read-out: MIC, S.D.T., Staphylococcus aureus SG 511
Protocol: (§1) The inhibitory effect on bacteria and fungi was examined by the serial dilution test and the agar diffusion test (hole-test). As bacteria were used: Staphylococcus aureus SG 511, Streptococcus Aronson, Streptococcus pyogenes At CC 86 68; as fungi: Candida albicans AT CC 10231, Trichophyton mentagrophytes AT CC 9129 and Aspergillus niger.
1. Meat extract broth: for St. aureus SG 511
(§2) The age of the primary cultures is 24 hours for bacteria and 14 days for fungi. The standardization of the suspension of microorganisms is effected using a photometer according to Eppendorf (test tube .phi.14 mm, filter 546 nm) and a suspension for comparison consisting of barium sulfate, this suspension being created by adition of 3.0 ml of 1% barium chloride solution to 97 ml of 1% sulfuric acid. After the standardization the bacteria were further diluted to a concentration of 1:1000 by means of sodium chloride solution, the fungi were used in an undiluted state.
(§3) 40 mgm of the substance were put into a 10 ml measuring flask and filled up to the mark with the solvent (corresponds to a dilution of 1:250=4000 μg/ml). The further dilution series was standardized with distilled water or the respective solvent and the following substance concentrations were prepared: 1000; 250; 62.5 μg/ml.
(§4) The tubes were filled with 4.9 ml of the corresponding liquid nutrient medium. Then 0.1 ml of the substance dilution prepared above was added to each tube, so that the mentioned final concentrations were present. Finally each tube was inoculated with 0.1 ml of the standardized suspension of microorganisms. Control tests merely using the solvent are to be carried out simultaneously.
(§5) Bacteria were incubated at 37° C. for 18-20 hours and fungi at 27° C. for 7 days.
(§6) The measurement is carried out macroscopically defining the minimal inhibitory concentration (the lowest still microbiostatically effective concentration).

[2] = tested on: Streptococcus Aronson; test: Serial dilution test; conditions: Streptococcus, 18-20 hours at 37° C., read-out: MIC, S.D.T., Streptococcus Aronson
Protocol: as §1
(§7) 2. Glucose broth: for Sc. Aronson and St. pyogenes Recipe see meat extract broth. After sterilization 1 weight percent of glucose is added as a sterile 50% solution.
as §2, §3, §4, §5, §6

[3] = tested on: Corynebacterium acnes; test: Serial dilution test for Corynebacterium acnes; conditions: for MIC: Cutibacterium acnes, 37° C. for 48 hours, read-out: MIC, S.D.T., Corynebacterium acnes
Protocol: (§8) Serial dilution test for Corynebacterium acnes and Pityrosporum ovale Nutrient medium
(§9) For Corynebacterium acnes: thioglycolate-broth for Pityrosporum ovale: Littmann's broth, 5 ml per tube.
(§10) Suspension of microorganisms in 0.9% sodium chloride solution, standardized using a photometer according to Eppendorf by means of a suspension for comparison consisting of barium sulfate, for Corynebacterium acnes in a dilution of 1:100, for Pityrosporum ovale in an undiluted state. 0.1 ml of the suspensions was used per test tube. Dimethyl sulfoxide served as a solvent for the substances.
(§11) The suspension with Corynebacteria acnes was incubated at 37° C. for 48 hours, the suspension of Pityrosporum ovale at 27° C. for 7 days. The reading was effected by macroscopic evaluation of the growth of microorganisms and registration of the minimal inhibitory concentration.

[4] = tested on: Aspergillus niger; test: Agar diffusion test (hole-test); conditions: 168 h, 27° C. for 7 days, read-out: MIC, A.D.T., Aspergillus niger
Protocol: as §1
(§12) 3. Sabouraud agar: for C. alb., Trich. ment., A. niger
as §2, with “addition” for “adition”, “St. aureus SG 511 was” for “the bacteria were further”, “diluted” for “diluted to a concentration of”, “1:1000 and Sc. pyogenes and Aronson 1:100” for “1:1000”, “solution. The” for “solution, the”
(§13) 40 mgm of the substance were put into a 10 ml measuring flask and filled up to the mark with the solvent (corresponds to a dilution of 1:250=4000 μg/ml).
(§14) The dilutions to the concentrations under test were effected with distilled water or the respective solvent.
(§15) 19 ml of the nutrient medium were filled into sterile Petri dishes of a diameter of 8 cm and dried. Subsequently the agar plates were charged with 4 ml of seed agar. 100 ml of seed agar contain 1.25 ml of the suspension of microorganisms, an agar plate thus containing 0.05 ml of the suspension of microorganisms. After solidification of the agar, 5 holes of a diameter of 5 mm were punched into the plates and filled with 0.05 ml of the correspondingly concentrated substance solution.
(§16) Control tests merely using the solvent are to be carried out simultaneously.
as §5
(§17) The diameter of the area of inhibition in mm was measured after having deducted the diameter of the hole.

[5] = tested on: Candida albicans AT CC 10231; test: Agar diffusion test (hole-test); conditions: ATCC10231, 168 h, 27° C. for 7 days, read-out: MIC, A.D.T., Candida albicans
Protocol: as §1, §12
as §2, with “addition” for “adition”, “St. aureus SG 511 was” for “the bacteria were further”, “diluted” for “diluted to a concentration of”, “1:1000 and Sc. pyogenes and Aronson 1:100” for “1:1000”, “solution. The” for “solution, the”
as §13, §14, §15, §16, §5, §17

[6] = tested on: Trichophyton mentagrophytes AT CC 9129; test: Agar diffusion test (hole-test); conditions: ATCC9129, 168 h, 27° C. for 7 days, read-out: MIC, A.D.T., Trichophyton mentagrophytes
Protocol: as §1, §12
as §2, with “addition” for “adition”, “St. aureus SG 511 was” for “the bacteria were further”, “diluted” for “diluted to a concentration of”, “1:1000 and Sc. pyogenes and Aronson 1:100” for “1:1000”, “solution. The” for “solution, the”
as §13, §14, §15, §16, §5, §17

[7] = tested on: Pityrosporum ovale CBS 1878; test: Agar diffusion test for Pityrosporum ovale CBS 1878; conditions: Malassezia furfur, CBS1878, 168 h, 7 days at 27° C., read-out: MIC, A.D.T., Pityrosporum ovale
Protocol: Agar diffusion test for Pityrosporum ovale CBS 1878 Nutrient medium
Littmann's agar, 23 ml per Petri dish, diameter of dish 100 mm.
Suspension of microorganisms in 0.9% sodium chloride solution, standardized using a photometer according to Eppendorf by means of a suspension for comparison consisting of barium sulfate. 0.05 ml per plate were used. The test substances were dissolved in dimethyl sulfoxide. The incubation time was 7 days at 27° C.; the area of inhibition in mm was measured, 0.05 ml of the solution of the substance were used for each punch-hole of a diameter of 6 mm. The results of these tests are recorded in the following tables 1 and 2: […]

[8] = tested on: Pityrosporum ovale; test: Serial dilution test for Pityrosporum ovale; conditions: Malassezia furfur, 168 h, 27° C. for 7 days, read-out: MIC, S.D.T., Pityrosporum ovale
Protocol: as §8, §9, §10, §11

[9] = tested on: Streptococcus pyogenes At CC 86 68; test: Serial dilution test; conditions: Streptococcus pyogenes, ATCC8668, 18-20 hours at 37° C., read-out: MIC, S.D.T., Streptococcus pyogenes
Protocol: as §1, §7, §2, §3, §4, §5, §6

SMILES: O=C(c1ccc(O)cc1O)C(F)(F)F [A, 2,4-Dihydroxy-trifluoroacetophenone, reference compound]
- MIC [1]: 80 µg/mL (≈ 388 µM)
- MIC [2]: 80 µg/mL (≈ 388 µM)
- MIC [3]: 80 µg/mL (≈ 388 µM)
- MIC [4]: 250 µg/mL (≈ 1210 µM)
- MIC [5]: 1000 µg/mL (≈ 4850 µM)
- MIC [6]: 250 µg/mL (≈ 1210 µM)
- MIC [7]: 1000 µg/mL (≈ 4850 µM)
- MIC [8]: 80 µg/mL (≈ 388 µM)

SMILES: CCc1cc(C(=O)C(F)(F)F)c(O)cc1O [B, 5-Ethyl-2,4-dihydroxy-trifluoroacetophenone, reference compound]
- MIC [1]: 20 µg/mL (≈ 85.4 µM)
- MIC [2]: 20 µg/mL (≈ 85.4 µM)
- MIC [9]: 20 µg/mL (≈ 85.4 µM)
- MIC [3]: 20 µg/mL (≈ 85.4 µM)
- MIC [4]: 250 µg/mL (≈ 1070 µM)
- MIC [5]: 1000 µg/mL (≈ 4270 µM)
- MIC [6]: 250 µg/mL (≈ 1070 µM)
- MIC [7]: 1000 µg/mL (≈ 4270 µM)
- MIC [8]: 80 µg/mL (≈ 342 µM)

SMILES: CCc1c(O)ccc(C(=O)C(F)(F)F)c1O [C, 3-Ethyl-2,4-dihydroxy-trifluoroacetophenone, reference compound]
- MIC [1]: 5 µg/mL (≈ 21.4 µM)
- MIC [2]: 5 µg/mL (≈ 21.4 µM)
- MIC [9]: 1.25 µg/mL (≈ 5.34 µM)
- MIC [3]: 1.25 µg/mL (≈ 5.34 µM)
- MIC [4]: 1000 µg/mL (≈ 4270 µM)
- MIC [5]: 1000 µg/mL (≈ 4270 µM)
- MIC [6]: 62.5 µg/mL (≈ 267 µM)
- MIC [7]: 1000 µg/mL (≈ 4270 µM)
- MIC [8]: > 80 µg/mL

SMILES: COc1ccc(C(=O)C(F)(F)F)c(OC)c1 [D, 2,4-Dimethoxy-trifluoroacetophenone, reference compound]
- MIC [1]: > 80 µg/mL
- MIC [2]: > 80 µg/mL
- MIC [9]: > 80 µg/mL
- MIC [3]: > 80 µg/mL
- MIC [4]: > 4000 µg/mL
- MIC [5]: > 4000 µg/mL
- MIC [6]: > 4000 µg/mL
- MIC [7]: > 4000 µg/mL
- MIC [8]: > 80 µg/mL

SMILES: CC(C)Cc1c(O)ccc(C(=O)C(F)(F)F)c1O [F, 2,4-Dihydroxy-3-iso-butyl-trifluoroacetophenone]
- MIC [1]: 0.08 µg/mL (≈ 0.305 µM)
- MIC [2]: 1.25 µg/mL (≈ 4.77 µM)
- MIC [9]: 1.25 µg/mL (≈ 4.77 µM)
- MIC [3]: 0.31 µg/mL (≈ 1.18 µM)
- MIC [4]: 250 µg/mL (≈ 953 µM)
- MIC [5]: 250 µg/mL (≈ 953 µM)
- MIC [6]: ≤ 15.6 µg/mL
- MIC [7]: 250 µg/mL (≈ 953 µM)
- MIC [8]: 80 µg/mL (≈ 305 µM)

SMILES: CC1CCC(c2c(O)ccc(C(=O)C(F)(F)F)c2O)CC1 (stereo not shown) [H, 2,4-Dihydroxy-3-(4'-methyl)-cyclohexyl-trifluoro-acetophenone]
- MIC [1]: 0.31 µg/mL (≈ 1.03 µM)
- MIC [2]: 1.25 µg/mL (≈ 4.14 µM)
- MIC [9]: 0.31 µg/mL (≈ 1.03 µM)
- MIC [3]: 1.25 µg/mL (≈ 4.14 µM)
- MIC [4]: 62.5 µg/mL (≈ 207 µM)
- MIC [5]: 1000 µg/mL (≈ 3310 µM)
- MIC [6]: ≤ 15.6 µg/mL
- MIC [7]: 1000 µg/mL (≈ 3310 µM)
- MIC [8]: > 80 µg/mL

SMILES: CC(C)c1c(O)ccc(C(=O)C(F)(F)F)c1O [P, 2,4-Dihydroxy-3-isopropyl-trifluoroacetophenone]
- MIC [1]: 1.25 µg/mL (≈ 5.04 µM)
- MIC [2]: 1.25 µg/mL (≈ 5.04 µM)
- MIC [9]: 1.25 µg/mL (≈ 5.04 µM)
- MIC [3]: 5 µg/mL (≈ 20.1 µM)
- Concentration with reduced growth (value in brackets), S.D.T., Corynebacterium acnes ([3]; reduced growth at this concentration): 1.25 µg/mL
